Source: patent EP1561465A2, “Methods of use of fluoroquinolone compounds against bacteria” (LG Life Sciences, Ltd., priority 1999, dated 2001)
Converted amounts (≈) assume the structure as drawn.

Assays:
Assay type in all cases: cell-based
[1] = test system: Streptococcus pneumoniae; test: MIC by NCCLS broth microdilution, 1100 Japanese clinical isolates 1997-1998; settings: Streptococcus pneumoniae; for MIC: Streptococcus pneumoniae quinolone resistant
[2] = test system: Proteus mirabilis; test: MIC by agar dilution (NCCLS), 322 nosocomial Gram negative isolates, Athens 1998; settings: Proteus mirabilis; n = 57 isolates
[3] = test system: Haemophilus influenzae; test: MIC by agar dilution (NCCLS), 411 isolates Buenos Aires 1998-99; settings: Haemophilus influenzae (n = 65)
[4] = test system: Streptococcus pneumoniae; test: MIC by broth microdilution (NCCLS), dried MicroScan panels, clinical isolates 1998-1999; settings: for MIC90: Streptococcus pneumoniae
[5] = test system: Enterococcus faecalis; test: MIC by agar macrodilution (NCCLS), 373 Gram positive isolates, Athens 1998
[6] = test system: Haemophilus influenzae; test: MIC by NCCLS reference broth microdilution, 450 respiratory tract pathogens; settings: Haemophilus influenzae; for MIC90: read-out: MIC90
[7] = test system: Streptococcus pneumoniae; test: MIC by two-fold serial agar dilution, Sensitivity Disk agar-N (Kitasato isolates); settings: Streptococcus pneumoniae; for MIC: read-out: MIC Range; for MIC50: read-out: MIC50
[8] = test system: Moraxella catarrhalis; test: MIC by NCCLS reference broth microdilution, 450 respiratory tract pathogens
[9] = test system: Enterobacter aerogenes; test: MIC by NCCLS broth microdilution, 1100 Japanese clinical isolates 1997-1998; settings: Enterobacter aerogenes (n=35)
[10] = Streptococcus pneumoniae (302 isolates)
[11] = Haemophilus influenzae (n = 100)

N[C@@H]1[C@H]2CN(c3nc4c(cc3F)c(=O)c(C(=O)O)cn4-c3ccc(F)cc3F)C[C@@H]12 [Trovafloxacin, trovafloxacin]
MIC90 ([1]; Streptococcus pneumoniae amoxicillin susceptible (n=35), read-out: MIC90): 0.25 mg/L (≈ 0.6 µM)
MIC50 ([1]; Streptococcus pneumoniae erythromycin resistant (n=34), read-out: MIC50): 0.063 mg/L (≈ 0.151 µM)
MIC ([1]; strain TMS1): 0.25 mg/L (≈ 0.6 µM)
MIC ([1]; strain TMS2): 1 mg/L (≈ 2.4 µM)
MIC50 [2]: 0.25 mg/L (≈ 0.6 µM)
MIC90 [2]: 16 mg/L (≈ 38.4 µM)
MIC90 [3]: 0.03 mg/L (≈ 0.0721 µM)
MIC Range [3]: ≤0.004 to 0.5 mg/L
MIC50 [4, 10]: 0.12 mg/L (≈ 0.288 µM)
MIC Range [4, 10]: ≤0.015 to 1 mg/L
MIC90 ([4]; Erythromycin-resistant (86)): 0.25 mg/L (≈ 0.6 µM)
MIC90 ([4]; Erythromycin-sensitive (216)): 0.25 mg/L (≈ 0.6 µM)
MIC90 ([4]; Penicillin-intermediate (124)): 0.25 mg/L (≈ 0.6 µM)
MIC90 ([4]; Penicillin-resistant (80)): 0.25 mg/L (≈ 0.6 µM)
MIC90 ([4]; Penicillin-sensitive (98)): 0.25 mg/L (≈ 0.6 µM)
MIC90 [4, 10]: 0.25 mg/L (≈ 0.6 µM)
MIC distribution (µg/ml) 0.06 [5]: 1
MIC distribution (µg/ml) 0.125 [5]: 0
MIC distribution (µg/ml) 0.25 [5]: 6
MIC distribution (µg/ml) 0.5 [5]: 21
MIC distribution (µg/ml) 1 [5]: 23
MIC distribution (µg/ml) 2 [5]: 6
MIC distribution (µg/ml) 4 [5]: 0
MIC distribution (µg/ml) 8 [5]: 3
MIC distribution (µg/ml) 16 [5]: 3
MIC distribution (µg/ml) ≤0.015 [5]: 0
MIC distribution (µg/ml) ≥32 [5]: 17
MIC50 ([5]; Enterococcus faecalis, n = 81 isolates, read-out: MIC50): 1 mg/L (≈ 2.4 µM)
MIC90 ([5]; Enterococcus faecalis, n = 81 isolates, read-out: MIC90): ≥ 32 mg/L
MIC [6, 11]: 0.0075 to 0.25 mg/L (≈ 0.018 to 0.6 µM)
MIC50 [6, 11]: ≤ 0.00075 mg/L
MIC90 [6, 11]: 0.06 mg/L (≈ 0.144 µM)
MIC ([6]; β-lactamase negative (n = 80)): 0.0075 to 0.25 mg/L (≈ 0.018 to 0.6 µM)
MIC50 ([6]; β-lactamase negative (n = 80)): ≤ 0.0075 mg/L
MIC90 ([6]; β-lactamase negative (n = 80)): 0.015 mg/L (≈ 0.036 µM)
MIC ([6]; β-lactamase positive (n = 20)): 0.0075 to 0.06 mg/L (≈ 0.018 to 0.144 µM)
MIC50 ([6]; β-lactamase positive (n = 20)): ≤ 0.0075 mg/L
MIC90 ([6]; β-lactamase positive (n = 20)): 0.06 mg/L (≈ 0.144 µM)
MIC90 [7]: 0.125 mg/L (≈ 0.3 µM)
MIC90 ([7]; 18 h, Ciprofloxacin-resistant (21), ciprofloxacin MIC ≥8 µg/ml, read-out: MIC90): 4 mg/L (≈ 9.61 µM)
MIC ([7]; 18 h, Ciprofloxacin-susceptible (94)): 0.031 to 0.25 mg/L (≈ 0.0745 to 0.6 µM)
MIC ([7]; 18 h, Erythromycin-resistant (37)): 0.063 to 2 mg/L (≈ 0.151 to 4.8 µM)
MIC ([7]; 18 h, Minocycline-resistant (37)): 0.063 to 2 mg/L (≈ 0.151 to 4.8 µM)
MIC ([7]; 18 h, Penicillin-resistant (19)): 0.031 to 0.25 mg/L (≈ 0.0745 to 0.6 µM)
MIC ([7]; 18 h): 0.125 to 4 mg/L (≈ 0.3 to 9.61 µM)
MIC50 ([7]; Ciprofloxacin-resistant (21)): 2 mg/L (≈ 4.8 µM)
MIC50 ([7]; Ciprofloxacin-susceptible (94)): 0.063 mg/L (≈ 0.151 µM)
MIC50 ([7]; Erythromycin-resistant (37)): 0.063 mg/L (≈ 0.151 µM)
MIC90 ([7]; Erythromycin-resistant (37), read-out: MIC90): 0.25 mg/L (≈ 0.6 µM)
MIC50 ([7]; Minocycline-resistant (37)): 0.063 mg/L (≈ 0.151 µM)
MIC90 ([7]; Minocycline-resistant (37), read-out: MIC90): 0.25 mg/L (≈ 0.6 µM)
MIC50 ([7]; Penicillin-resistant (19)): 0.063 mg/L (≈ 0.151 µM)
MIC90 ([7]; Penicillin-resistant (19), read-out: MIC90): 0.25 mg/L (≈ 0.6 µM)
MIC ([8]; Moraxella catarrhalis (n = 50)): 0.00375 to 0.06 mg/L (≈ 0.00901 to 0.144 µM)
MIC50 ([8]; Moraxella catarrhalis (n = 50)): 0.015 mg/L (≈ 0.036 µM)
MIC90 ([8]; Moraxella catarrhalis (n = 50)): 0.06 mg/L (≈ 0.144 µM)
MIC ([8]; β-lactamase negative (n = 13)): 0.00375 to 0.06 mg/L (≈ 0.00901 to 0.144 µM)
MIC50 ([8]; β-lactamase negative (n = 13)): 0.0075 mg/L (≈ 0.018 µM)
MIC90 ([8]; β-lactamase negative (n = 13)): 0.036 mg/L (≈ 0.0865 µM)
MIC ([8]; β-lactamase positive (n = 37)): 0.00375 to 0.06 mg/L (≈ 0.00901 to 0.144 µM)
MIC50 ([8]; β-lactamase positive (n = 37)): 0.015 mg/L (≈ 0.036 µM)
MIC90 ([8]; β-lactamase positive (n = 37)): 0.03 mg/L (≈ 0.0721 µM)
MIC Range [9]: ≤0.008 to 0.125 mg/L
MIC50 ([9]; Klebsiella aerogenes): 0.032 mg/L (≈ 0.0769 µM)
MIC90 ([9]; Klebsiella aerogenes): 0.063 mg/L (≈ 0.151 µM)
